Measurements as given in patent US20210115509A1, “BIOMARKER FOR IDENTIFYING SPECIFIC EXPOSURE TO KETONES AND METHOD OF IDENTIFICATION USING THE SAME” (KOREA INSTITUTE OF SCIENCE AND TECHNOLOGY, priority 2019, published 2021).

Key:
[1] = tested on: BEAS-2B human bronchial epithelial cell line; assay: Gene expression change by high-throughput RNA sequencing (NextSeq 500) in ketone-exposed BEAS-2B cells; assay type: cell-based
Experimental: RNA was extracted from cell samples of ketone-exposed and non-ketone-exposed groups using a TRIzol reagent (Life Technologies, USA) in accordance with the manufacturer's directions to isolate total RNA and the total RNA was purified using a RNeasy mini kit (Qiagen, USA). The concentration of each total RNA sample was determined by a ND-2000 spectrophotometer (Thermo Inc., DE, USA) as a spectrophotometer and Agilent 2100 Bioanalyzer (Agilent Technologies, USA).
The establishment of libraries from the total RNA obtained in Example 2-1 in the experimental group and the normal control group exposed to the ketones was carried out using a QuantSeq 3′ mRNA-Seq Library Prep Kit (Lexogen, Inc., Austria) in accordance with the manufacturer's directions. 500 ng of the total RNA was hybridized with an oligo-dT primer including an Illumina-compatible sequence at the 5′ end of RNA, followed by reverse transcription. After degradation of the RNA template, a second strand was synthesized using a random primer including an Illumina-compatible linker sequence at the 5′ end thereof. Double-stranded libraries were purified using magnetic beads to remove all reaction components. The library was amplified in order to add the entire adapter sequence required for cluster production, and the completed cDNA library was purified from the PCR components.
Sequencing was performed by high-throughput sequencing as single-end 75 sequencing using a NextSeq 500 (IIlumina, Inc., USA). Read count (RC) data was processed based on the quantile normalization method using EdgeR in R (R development Core Team, 2016) using Bioconductor (Gentleman et al., 2004). Gene classification was based on searches performed on DAVID (http://david.abcc.ncifcrf.gov/) and the Medline database (http://www.ncbi.nlm.nih.gov/).
The extracted data were analyzed through normalization using Agilent GeneSpring GX 12.6.1 (Agilent technologies, CA, USA) to analyze the expression pattern of each gene.

[2] = tested on: BEAS-2B human bronchial epithelial cell line; assay: MTT assay, cytotoxicity of ketone compounds in BEAS-2B cell line; assay type: cell-based
Experimental: BEAS-2B (Korean Cell Line Bank), a human bronchial epithelial cell line, was cultured using RPMI 1640 medium (Gibco, USA) supplemented with 10% FBS until the cells grew to about a confluence of 70 to 80% in a 100 mm dish.
Among ketones belonging to mVOCs (microbial volatile organic compounds) exposed to the environment, acetone, 2-butanone, 2-pentanone, 2-hexanone and 2-heptanone were selected, and the chemicals were dissolved in filtered distilled water (DW). A vehicle concentration was set to 0.1% or less in all experiments.
MTT assay using a BEAS-2B cell line was performed in accordance with the method of Mossman et al. (J. Immunol. Methods, 65, 55-63, 1983).
Specifically, the cells were seeded at a density of 3.5×10^4 cells/well in a 24-well plate and treated with the five ketone compounds dissolved in filtered distilled water, prepared in Example 1-2. After 48 hours, the result was mixed with 5 mg/ml of MTT (3-4,5-dimethylthiazol-2,5-diphenyltetrazolium bromide), added to a tube and incubated at 37° C. for 3 hours. Then, the medium was removed, the formed formazan crystal was dissolved in 500 μl of DMSO, and then 100 μl of the solution was transferred to a 96-well plate to measure an OD (optical density) value at 540 nm.

[3] = IC5 conc.: Acetone 5.38, 2-Butanone 22.27, 2-Pentanone 5.24, 2-Hexanone 14.82, 2-Heptanone 5.05 mM
[4] = IC20 conc.: Acetone 71.90, 2-Butanone 106.21, 2-Pentanone 39.38, 2-Hexanone 52.51, 2-Heptanone 20.22 mM

CCC(C)=O [2-Butanone, 2-butanone]
Fold change ADRA2A (NM_000681) [1, 3]: 0.185 | Fold change ATRNL1 (NR_074088) [1, 3]: 3.234 | Fold change C12orf79 (NR_046159) [1, 3]: 0.216 | Fold change C14orf80 (NR_046159) [1, 3]: 0.356 | Fold change CALML3 (NM_001286399) [1, 3]: 0.356 | Fold change CCDC184 (NM_001013635) [1, 3]: 2.379 | Fold change CD37 (NM_001040031) [1, 3]: 3.286 | Fold change CDHR1 (NM_001171971) [1, 3]: 0.470 | Fold change CHL1 (NM_001253387) [1, 3]: 0.274 | Fold change COL4A3 (NM_000091) [1, 3]: 2.264 | Fold change CRLF2 (NM_022148) [1, 3]: 0.359 | Fold change CSF3R (NM_172313) [1, 3]: 0.356 | Fold change DNMBP-AS1 (NR_024130) [1, 3]: 11.453 | Fold change EGR1 (NM_001964) [1, 3]: 0.422 | Fold change GNA14 (NM_004297) [1, 3]: 3.512 | Fold change LOC728752 (NR_036504) [1, 3]: 3.506 | Fold change PAX8 (NM_003466) [1, 3]: 6.636 | Fold change PRRT3-AS1 (NR_046734) [1, 3]: 2.207 | Fold change RBP3 (NM_002900) [1, 3]: 0.356 | Fold change SEPT14 (NM_207366) [1, 3]: 0.458 | Fold change SERPINA12 (NM_001304461) [1, 3]: 0.356 | Fold change SLC13A4 (NM_012450) [1, 3]: 7.697 | Fold change SPOCK2 (NM_001244950) [1, 3]: 3.020 | Fold change TSPAN1 (NM_005727) [1, 3]: 2.540 | Fold change USP12-AB1 (NR_046647) [1, 3]: 3.499 | Fold change VIPR†-AS1 (NR_046654) [1, 3]: 0.356 | Fold change XIRP1 (NM_001198621) [1, 3]: 0.356 | Fold change ZFP69B (NM_023070) [1, 3]: 4.676 | Fold change ZNF432 (NM_014650) [1, 3]: 2.326 | Fold change ZNF487 (NR_026693) [1, 3]: 0.356 | Fold change ADRA2A (NM_000681) [1, 4]: 0.184 | Fold change ATRNL1 (NR_074088) [1, 4]: 2.330 | Fold change C12orf79 (NR_046159) [1, 4]: 0.216 | Fold change C14orf80 (NR_046159) [1, 4]: 0.356 | Fold change CALML3 (NM_001286399) [1, 4]: 0.356 | Fold change CCDC184 (NM_001013635) [1, 4]: 6.647 | Fold change CD37 (NM_001040031) [1, 4]: 2.647 | Fold change CDHR1 (NM_001171971) [1, 4]: 0.222 | Fold change CHL1 (NM_001253387) [1, 4]: 0.268 | Fold change COL4A3 (NM_000091) [1, 4]: 3.577 | Fold change CRLF2 (NM_022148) [1, 4]: 0.359 | Fold change CSF3R (NM_172313) [1, 4]: 0.356 | Fold change DNMBP-AS1 (NR_024130) [1, 4]: 12.732 | Fold change EGR1 (NM_001964) [1, 4]: 0.404 | Fold change GNA14 (NM_004297) [1, 4]: 5.582 | Fold change LOC728752 (NR_036504) [1, 4]: 6.647 | Fold change PAX8 (NM_003466) [1, 4]: 2.233 | Fold change PRRT3-AS1 (NR_046734) [1, 4]: 2.147 | Fold change RBP3 (NM_002900) [1, 4]: 0.356 | Fold change SEPT14 (NM_207366) [1, 4]: 0.217 | Fold change SERPINA12 (NM_001304461) [1, 4]: 0.356 | Fold change SLC13A4 (NM_012450) [1, 4]: 8.571 | Fold change SPOCK2 (NM_001244950) [1, 4]: 8.426 | Fold change TSPAN1 (NM_005727) [1, 4]: 2.466 | Fold change USP12-AB1 (NR_046647) [1, 4]: 5.570 | Fold change VIPR†-AS1 (NR_046654) [1, 4]: 0.356 | Fold change XIRP1 (NM_001198621) [1, 4]: 0.356 | Fold change ZFP69B (NM_023070) [1, 4]: 2.942 | Fold change ZNF432 (NM_014650) [1, 4]: 6.342 | Fold change ZNF487 (NR_026693) [1, 4]: 0.356 | concentration (105) providing a survival rate (viability) of 95% ([2]; BEAS-2B, 48 hours, MTT): 22270 µM | concentration (1020) providing a survival rate (viability) of 80% ([2]; BEAS-2B, 48 hours, MTT): 106210 µM

CCCC(C)=O [2-Pentanone, 2-pentanone]
Fold change ADRA2A (NM_000681) [1, 3]: 0.179 | Fold change ATRNL1 (NR_074088) [1, 3]: 4.158 | Fold change C12orf79 (NR_046159) [1, 3]: 0.213 | Fold change C14orf80 (NR_046159) [1, 3]: 0.354 | Fold change CALML3 (NM_001286399) [1, 3]: 0.354 | Fold change CCDC184 (NM_001013635) [1, 3]: 4.501 | Fold change CD37 (NM_001040031) [1, 3]: 2.028 | Fold change CDHR1 (NM_001171971) [1, 3]: 0.216 | Fold change CHL1 (NM_001253387) [1, 3]: 0.335 | Fold change COL4A3 (NM_000091) [1, 3]: 2.229 | Fold change CRLF2 (NM_022148) [1, 3]: 0.355 | Fold change CSF3R (NM_172313) [1, 3]: 0.354 | Fold change DNMBP-AS1 (NR_024130) [1, 3]: 2.406 | Fold change EGR1 (NM_001964) [1, 3]: 0.419 | Fold change GNA14 (NM_004297) [1, 3]: 8.261 | Fold change LOC728752 (NR_036504) [1, 3]: 7.322 | Fold change PAX8 (NM_003466) [1, 3]: 2.723 | Fold change PRRT3-AS1 (NR_046734) [1, 3]: 2.817 | Fold change RBP3 (NM_002900) [1, 3]: 0.354 | Fold change SEPT14 (NM_207366) [1, 3]: 0.214 | Fold change SERPINA12 (NM_001304461) [1, 3]: 0.354 | Fold change SLC13A4 (NM_012450) [1, 3]: 8.995 | Fold change SPOCK2 (NM_001244950) [1, 3]: 4.031 | Fold change TSPAN1 (NM_005727) [1, 3]: 4.281 | Fold change USP12-AB1 (NR_046647) [1, 3]: 7.329 | Fold change VIPR†-AS1 (NR_046654) [1, 3]: 0.354 | Fold change XIRP1 (NM_001198621) [1, 3]: 0.354 | Fold change ZFP69B (NM_023070) [1, 3]: 2.472 | Fold change ZNF432 (NM_014650) [1, 3]: 4.086 | Fold change ZNF487 (NR_026693) [1, 3]: 0.354 | Fold change ADRA2A (NM_000681) [1, 4]: 0.184 | Fold change ATRNL1 (NR_074088) [1, 4]: 2.665 | Fold change C12orf79 (NR_046159) [1, 4]: 0.216 | Fold change C14orf80 (NR_046159) [1, 4]: 0.356 | Fold change CALML3 (NM_001286399) [1, 4]: 0.356 | Fold change CCDC184 (NM_001013635) [1, 4]: 2.387 | Fold change CD37 (NM_001040031) [1, 4]: 3.272 | Fold change CDHR1 (NM_001171971) [1, 4]: 0.223 | Fold change CHL1 (NM_001253387) [1, 4]: 0.273 | Fold change COL4A3 (NM_000091) [1, 4]: 5.033 | Fold change CRLF2 (NM_022148) [1, 4]: 0.359 | Fold change CSF3R (NM_172313) [1, 4]: 0.356 | Fold change DNMBP-AS1 (NR_024130) [1, 4]: 8.289 | Fold change EGR1 (NM_001964) [1, 4]: 0.332 | Fold change GNA14 (NM_004297) [1, 4]: 6.776 | Fold change LOC728752 (NR_036504) [1, 4]: 5.683 | Fold change PAX8 (NM_003466) [1, 4]: 2.277 | Fold change PRRT3-AS1 (NR_046734) [1, 4]: 3.902 | Fold change RBP3 (NM_002900) [1, 4]: 0.356 | Fold change SEPT14 (NM_207366) [1, 4]: 0.218 | Fold change SERPINA12 (NM_001304461) [1, 4]: 0.356 | Fold change SLC13A4 (NM_012450) [1, 4]: 2.153 | Fold change SPOCK2 (NM_001244950) [1, 4]: 2.181 | Fold change TSPAN1 (NM_005727) [1, 4]: 3.938 | Fold change USP12-AB1 (NR_046647) [1, 4]: 2.362 | Fold change VIPR†-AS1 (NR_046654) [1, 4]: 0.356 | Fold change XIRP1 (NM_001198621) [1, 4]: 0.356 | Fold change ZFP69B (NM_023070) [1, 4]: 2.299 | Fold change ZNF432 (NM_014650) [1, 4]: 5.290 | Fold change ZNF487 (NR_026693) [1, 4]: 0.356 | concentration (105) providing a survival rate (viability) of 95% ([2]; human, 48 h): 5240 µM | concentration (1020) providing a survival rate (viability) of 80% ([2]; human, 48 h): 39330 µM
